Consider 19 compounds from patent publication US7585859B2, “PDE4B inhibitors and uses therefor” (Plexxikon, Inc., priority 2004, dated 2009).

Like-named read-outs stand apart in the source and are kept apart here.

The target of experiment [1] is T1, PDE4B: The catalytic domain of human PDE4B from S152-S528 (Homo sapiens, UniProt Q07343).
T1 construct: His6 (N); thrombin cleavage site (N); made in house; host or cells: E. coli
Briefly: PDE4 IC50 determination by Scintillation Proximity Assay, PDE4B. It is filed as biochemical. Summed up:
(§1)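 Enzyme was added to compound and [^3H]cAMP, then incubated 30 min at 30° (PDE4B 80 ng/ml; PDE4D 4 ng/ml). Product [^3H]AMP bound to SPA beads and was counted. IC50 was fitted by non-linear regression against DMSO and roflumilast controls.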
(In general: Scintillation proximity formats need no separation of bound from free tracer.)

For experiment [2], the system named is TNFα levels in serum of LPS-challenged rats. Briefly: Rat inhibition studies: serum TNFα after iv LPS challenge. It is filed as in vivo. As to conditions: po, 100 mg/kg po, read-out: % inhibition r TNFα. How it is done: All studies were done with male rats CD (SD) IGS BR (Crl) (Charles River, France), which were grouped in to 5 animal groups.
At the end of the acclimatization period, the non-fasted rats were weighed, individually identified on the tail with a permanent marker and administered by oral (po) or interperitoneal (ip) route with either vehicle, reference or test compound in a volume of 10 mL/kg adapted to the body weight. The animals were gathered in groups of 5 animals in a polystyrene labeled cage with sawdust covered floors. 2-hours after vehicle, reference or test substance administration, rats received an intravenous (iv) injection of 0.1 mg/kg LPS in a volume of 1 mL/kg of body weight. 2 h after LPS challenge (or as indicated in Tables 3B and 4B), blood samples were collected into tubes without anticoagulant by retro-orbital puncture under gas (isoflurane) anesthesia. Samples were allowed to clot at room temperature for 5 to 10 min then put on ice until there were prepared by centrifugation (6000×g for 3 min at 4° C.) and stored at −20° C. until use. TNFα levels were measured in serum samples in duplicate by ELISA technique according to the manufacturer's procedure (Rat TNFα kit Quantikine M (RTA00, R&D System, France)). Data are reported as percent decrease in observed TNFα levels versus TNFa levels observed for vehicle dosed animal groups.

The target of a further experiment is T2, PDE4D (Homo sapiens, UniProt Q08499).
T2 construct: PDE4D: The catalytic domain of human PDE4B from S3 16-V692; His6 (N); thrombin cleavage site (N); made in house; host or cells: E. coli
Nature of the experiment: PDE4 IC50 determination by Scintillation Proximity Assay, PDE4D. It is filed as biochemical. Summed up:
as §1

For experiment [3], the target named is T3, full-length human PDE4B2 isozyme (Homo sapiens, UniProt Q07343).
T3 construct: The full-length human PDE4B2 isozyme; His6 (N); TEV cleavage site (N); made in house; host or cells: baculovirus infected insect cells (unpurified lysate)
Briefly: PDE4 IC50 determination by Scintillation Proximity Assay, PDE4B2. As to conditions: Table 1B, Formula I compounds; read-out: IC50 PDE4B2. Format: biochemical. Summed up: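 Unpurified His6-TEV-tagged full-length human PDE4B2 from baculovirus-infected insect cell lysate (2.5 μl of 50% glycerol stock/ml) hydrolysed [3H]cAMP in 50 mM Tris pH 7.5, 8.3 mM MgCl, 1.7 mM EGTA, 0.01% BSA for 30 min at 30°. Stopped with SPA beads in 18 mM ZnSO4; [3H]AMP scintillation counted, IC50 by non-linear regression.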

Experiment [4] addresses T4, full-length human PDE4D5 isozyme (Homo sapiens, UniProt Q08499).
T4 construct: The full-length human PDE4D5 isozyme; His6 (N); TEV cleavage site (N); made in house; host or cells: baculovirus infected insect cells (unpurified lysate)
Briefly: PDE4 IC50 determination by Scintillation Proximity Assay, PDE4D5. As to conditions: Table 1B, Formula I compounds; read-out: IC50 PDE4D5. It is filed as biochemical. Summed up:
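Unpurified His6-tagged full-length human PDE4D5 from baculovirus-infected insect cell lysate, 0.083 μl glycerol stock/ml, hydrolysed [3H]cAMP in Tris pH 7.5/MgCl/EGTA buffer, 30 min at 30°. ZnSO4/SPA beads stop; [3H]AMP counted. Controls: DMSO and roflumilast; 11-point duplicate curves, nonlinear-regression IC50.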

Where [5] appears, read: second part of Table 2B (2-23 to 2-103), column 3, column is PDE4B in first part, read-out: IC 50 vs. indicated assay h TNFα.
The mark [6] stands for this setting: second part of Table 2B (2-23 to 2-103), column 5, column is PDE4D in first part, read-out: IC 50 vs. indicated assay h TNFα.
Setting [7] is: 2 h, rat in vivo, 2 hr challenge delay, percent decrease in TNFα versus vehicle.
Where [8] appears, read: Table 1B, Formula I compounds, read-out: IC50 PDE4B.
Setting [9] is: Table 1B, Formula I compounds, read-out: IC50 PDE4D.

T2 sequence (Q08499 380-756): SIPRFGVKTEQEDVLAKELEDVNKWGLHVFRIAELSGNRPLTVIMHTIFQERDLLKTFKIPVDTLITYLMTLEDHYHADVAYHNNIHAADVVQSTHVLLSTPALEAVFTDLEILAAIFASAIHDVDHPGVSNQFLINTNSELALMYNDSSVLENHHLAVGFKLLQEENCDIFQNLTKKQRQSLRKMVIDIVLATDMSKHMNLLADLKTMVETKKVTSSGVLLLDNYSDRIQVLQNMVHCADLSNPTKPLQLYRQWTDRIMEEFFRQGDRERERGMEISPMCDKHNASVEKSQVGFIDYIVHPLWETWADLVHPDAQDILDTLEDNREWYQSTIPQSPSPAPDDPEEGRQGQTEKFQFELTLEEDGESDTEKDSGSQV
T4 sequence (Q08499 1-745 isoform Q08499-6): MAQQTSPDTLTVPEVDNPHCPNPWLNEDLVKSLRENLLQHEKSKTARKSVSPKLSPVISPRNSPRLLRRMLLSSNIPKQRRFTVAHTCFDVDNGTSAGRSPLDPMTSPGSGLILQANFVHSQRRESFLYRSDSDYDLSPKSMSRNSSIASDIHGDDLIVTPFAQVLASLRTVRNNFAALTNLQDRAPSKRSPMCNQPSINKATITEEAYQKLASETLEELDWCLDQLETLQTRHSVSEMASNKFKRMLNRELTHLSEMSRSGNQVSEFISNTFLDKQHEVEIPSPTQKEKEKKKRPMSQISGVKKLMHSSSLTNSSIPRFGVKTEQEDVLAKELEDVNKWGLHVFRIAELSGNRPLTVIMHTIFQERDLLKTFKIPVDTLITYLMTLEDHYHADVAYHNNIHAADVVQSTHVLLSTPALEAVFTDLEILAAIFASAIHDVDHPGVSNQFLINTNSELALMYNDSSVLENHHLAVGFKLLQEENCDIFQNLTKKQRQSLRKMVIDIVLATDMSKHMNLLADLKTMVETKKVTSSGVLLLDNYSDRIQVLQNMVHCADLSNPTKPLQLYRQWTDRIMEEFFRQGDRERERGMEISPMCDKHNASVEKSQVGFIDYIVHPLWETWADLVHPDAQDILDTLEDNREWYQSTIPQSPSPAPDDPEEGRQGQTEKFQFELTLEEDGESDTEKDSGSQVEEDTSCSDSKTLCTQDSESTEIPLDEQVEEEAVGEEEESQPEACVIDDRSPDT
T1 sequence (Q07343 with tags, fused parts or gaps): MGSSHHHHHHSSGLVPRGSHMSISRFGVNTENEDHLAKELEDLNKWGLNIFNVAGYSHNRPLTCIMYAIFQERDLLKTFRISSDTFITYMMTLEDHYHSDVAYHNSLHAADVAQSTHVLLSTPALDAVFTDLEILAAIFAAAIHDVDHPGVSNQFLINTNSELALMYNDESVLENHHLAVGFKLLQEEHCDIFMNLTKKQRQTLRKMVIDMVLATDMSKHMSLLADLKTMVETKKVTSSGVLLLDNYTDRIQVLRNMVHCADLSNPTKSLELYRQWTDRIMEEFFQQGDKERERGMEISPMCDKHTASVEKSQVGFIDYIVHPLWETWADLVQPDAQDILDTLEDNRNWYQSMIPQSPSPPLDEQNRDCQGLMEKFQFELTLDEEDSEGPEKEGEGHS
T3 sequence (Q07343 1-564 isoform Q07343-2): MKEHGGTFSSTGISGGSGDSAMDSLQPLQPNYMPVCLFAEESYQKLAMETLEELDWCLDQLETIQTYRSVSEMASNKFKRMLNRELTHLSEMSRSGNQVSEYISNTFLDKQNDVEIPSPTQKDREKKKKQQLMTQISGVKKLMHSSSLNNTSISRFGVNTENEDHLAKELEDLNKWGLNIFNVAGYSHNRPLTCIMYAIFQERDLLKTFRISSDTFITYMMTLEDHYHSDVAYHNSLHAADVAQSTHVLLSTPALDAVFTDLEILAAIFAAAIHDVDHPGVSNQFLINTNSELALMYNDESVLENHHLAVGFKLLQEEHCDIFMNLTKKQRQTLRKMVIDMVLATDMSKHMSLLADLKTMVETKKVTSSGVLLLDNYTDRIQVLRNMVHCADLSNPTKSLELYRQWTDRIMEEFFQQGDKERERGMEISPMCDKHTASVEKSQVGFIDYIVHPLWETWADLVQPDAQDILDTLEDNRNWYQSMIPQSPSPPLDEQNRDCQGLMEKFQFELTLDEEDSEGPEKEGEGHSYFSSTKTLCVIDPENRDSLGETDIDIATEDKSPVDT

`CCOC(=O)c1ccc(Nc2nc(N)c(C(=O)c3ccc(OC)cc3)s2)cc1` [Compound 2-38, 4-[4-Amino-5-(4-methoxy-benzoyl)-thiazol-2-ylamino]-benzoic acid ethyl ester]: the IC50 (in experiment [1] (setting [5]); on PDE4D (setting [6])) was below 10 µM in each case. Also, the inhibition in vivo at 100 mg/kg in experiment [2] (1 h, rat in vivo, 1 hr) was below 20%.

`COc1ccc(C(=O)c2sc(Nc3ccc(C(=O)O)cc3)nc2N)cc1` [Compound 2-40, 4-[4-Amino-5-(4-methoxy-benzoyl)-thiazol-2-ylamino]-benzoic acid]: the IC50 (in experiment [1] (setting [5]); at PDE4D (setting [6])) was below 10 µM each time. The inhibition in vivo at 100 mg/kg in experiment [2] (1 h, rat in vivo, 1 hr) is below 20%.

Take `CCOC(=O)c1cc(C(=O)c2sc(Nc3ccccc3F)nc2N)on1` [Compound 2-1, 5-[4-Amino-2-(2-fluoro-phenylamino)-thiazole-5-carbonyl]-isoxazole-3-carboxylic acid ethyl ester]: the IC50 was below 10 µM in experiment [1] (first part of Table 2B (2-1 to 2-22), read-out: IC 50 vs. indicated assay PDE4B) and below 10 µM on PDE4D (first part of Table 2B (2-1 to 2-22), read-out: IC 50 vs. indicated assay PDE4D). In experiment [2] (setting [7]), the inhibition in vivo at 100 mg/kg was below 20%.

For `COc1ccc(C(=O)c2sc(Nc3cccc(SC)c3)c(C#N)c2N)cc1` [Compound 1-177, 4-Amino-5-(4-methoxy-benzoyl)-2-(3-methylsulfanyl-phenylamino)-thiophene-3-carbonitrile], the IC50 (in experiment [1] (setting [8]); on PDE4D (setting [9])) was below 10 µM in each case. Besides, in experiment [2] (2 h, rat in vivo inhibition assay, 2 hr challenge delay), the inhibition in vivo at 100 mg/kg is below 20%.

Turning to `COc1ccc(C(=O)c2sc(Nc3c(Cl)cccc3Cl)nc2N)cc1` [Compound 2-41, [4-Amino-2-(2,6-dichloro-phenylamino)-thiazol-5-yl]-(4-methoxy-phenyl)-methanone], the IC50 (in experiment [1] (setting [5]); at PDE4D (setting [6])) was below 10 µM in each case. Also, the inhibition in vivo at 100 mg/kg in experiment [2] (setting [7]) is below 20%.

As to `CCOC(=O)c1ccc(Nc2nc(N)c(C(=O)c3ccccc3)s2)cc1` [Compound 2-33, 4-(4-Amino-5-benzoyl-thiazol-2-ylamino)-benzoic acid ethyl ester], the IC50 in experiment [1] (setting [5]) is below 10 µM; at PDE4D (setting [6]), above 10 µM. For the same compound, the inhibition in vivo at 100 mg/kg in experiment [2] (setting [7]) was above 20%.

For the compound `COC(=O)c1cccc(Nc2nc(N)c(C(=O)c3ccccc3)s2)c1` [Compound 2-34, 3-(4-Amino-5-benzoyl-thiazol-2-ylamino)-benzoic acid methyl ester], the IC50 (in experiment [1] (setting [5]); at PDE4D (setting [6])) was below 10 µM in each case. The inhibition in vivo at 100 mg/kg in experiment [2] (setting [7]) was below 20%.

With `Nc1nc(Nc2c(Cl)cccc2Cl)sc1C(=O)C1CCCC1` [Compound 2-93, [4-Amino-2-(2,6-dichloro-phenylamino)-thiazol-5-yl]-cyclopentyl-methanone], the IC50 (in experiment [1] (setting [5]); at PDE4D (setting [6])) was below 10 µM in each case. Moreover, the inhibition in vivo at 100 mg/kg in experiment [2] (1 h, rat in vivo, 1 hr) is below 20%.

As for `CCc1ccccc1Nc1sc(C(=O)c2cc(OC)ccc2OC)c(N)c1C#N` [Compound 1-99, 4-Amino-5-(2,5-dimethoxy-benzoyl)-2-(2-ethyl-phenylamino)-thiophene-3-carbonitrile], the IC50 (in experiment [3]; in experiment [1] (setting [8]); in experiment [4]; on PDE4D (setting [9])) was below 10 µM in each case.

Regarding `Cc1c(C(=O)c2sc(Nc3cccc(C#N)c3)c(C#N)c2N)cnn1-c1ccccc1` [Compound 1-125, 4-Amino-2-(3-cyano-phenylamino)-5-(5-methyl-1-phenyl-1H-pyrazole-4-carbonyl)-thiophene-3-carbonitrile], the IC50 (in experiment [3]; in experiment [1] (setting [8]); in experiment [4]; at PDE4D (setting [9])) was below 10 µM in each case.

For the compound `CC(C)C(C)Nc1sc(C(=O)c2cc(-c3ccc(Cl)c(Cl)c3)no2)c(N)c1C(N)=O` (centres unmarked) [Compound 1-248, 4-Amino-5-[3-(3,4-dichloro-phenyl)-isoxazole-5-carbonyl]-2-(1,2-dimethyl-propylamino)-thiophene-3-carboxylic acid amide], the IC50 in experiment [3] was below 10 µM; in experiment [1] (setting [8]), below 10 µM; in experiment [4], above 10 µM; at PDE4D (setting [9]), below 10 µM.

Turning to `Cc1onc(-c2ccccc2)c1C(=O)c1sc(NC2CCCC2)c(C#N)c1N` [Compound 1-61, 4-Amino-2-cyclopentylamino-5-(5-methyl-3-phenyl-isoxazole-4-carbonyl)-thiophene-3-carbonitrile], the IC50 (in experiment [3]; in experiment [1] (setting [8]); in experiment [4]; on PDE4D (setting [9])) was below 10 µM each time.

On to `N#Cc1c(NC2CCCO2)sc(C(=O)c2cc(-c3ccccc3)no2)c1N` (centres unmarked) [Compound 1-210, 4-Amino-5-(3-phenyl-isoxazole-5-carbonyl)-2-(tetrahydro-furan-2-ylamino)-thiophene-3-carbonitrile], for which the IC50 (in experiment [3]; in experiment [1] (setting [8]); in experiment [4]; at PDE4D (setting [9])) was below 10 µM each time.

As for `N#Cc1c(NC2CCCC2)sc(C(=O)c2cc(-c3c(Cl)cccc3Cl)no2)c1N` [Compound 1-211, 4-Amino-2-cyclopentylamino-5-[3-(2,6-dichloro-phenyl)-isoxazole-5-carbonyl]-thiophene-3-carbonitrile], the IC50 (in experiment [3]; in experiment [1] (setting [8]); in experiment [4]; on PDE4D (setting [9])) was below 10 µM each time.

As to `N#Cc1c(NC2CCCC2)sc(C(=O)c2ccccn2)c1N` [Compound 1-66, 4-Amino-2-cyclopentylamino-5-(pyridine-2-carbonyl)-thiophene-3-carbontrile], the IC50 (in experiment [3]; in experiment [1] (setting [8]); in experiment [4]; at PDE4D (setting [9])) was below 10 µM in each case.

As to `CC(C)(C)Nc1sc(C(=O)c2cc(-c3ccccc3)no2)c(N)c1C#N` [Compound 1-224, 4-Amino-2-tert-butylamino-5-(3-phenyl-isoxazole-5-carbonyl)-thiophene-3-carbonitrile], the IC50 (in experiment [3]; in experiment [1] (setting [8]); in experiment [4]; at PDE4D (setting [9])) was below 10 µM in each case.

Take `N#Cc1cccc(Nc2sc(C(=O)c3ccc(-c4ccccn4)s3)c(N)c2C#N)c1` [Compound 1-69, 4-Amino-2-(3-cyano-phenylamino)-5-(5-pyridin-2-yl-thiophene-2-carbonyl)-thiophene-3-carbonitrile]: the IC50 (in experiment [3]; in experiment [1] (setting [8]); in experiment [4]; on PDE4D (setting [9])) was below 10 µM each time.

Regarding `N#Cc1c(Nc2ccc(C(=O)NC3CCOC3=O)cc2)sc(C(=O)c2ccc(-c3ccccn3)s2)c1N` (centres unmarked) [Compound 1-77, 4-[4-Amino-3-cyano-5-(5-pyridin-2-yl-thiophene-2-carbonyl)-thiophen-2-ylamino]-N-(2-oxo-tetrahydro-furan-3-yl)-benzamide], the IC50 (in experiment [3]; in experiment [1] (setting [8]); in experiment [4]; on PDE4D (setting [9])) was below 10 µM throughout.

For `NC(=O)c1c(Nc2ccccc2)sc(C(=O)c2ccccc2)c1N` [Compound 1-12, 4-Amino-5-benzoyl-2-phenylamino-thiophene-3-carboxylic acid amide], the IC50 (in experiment [3]; in experiment [1] (setting [8]); in experiment [4]; at PDE4D (setting [9])) was above 10 µM in each case.
